The values that follow come from paper PMC12627810 (Nature Communications, 2025).

“And” between values parts separate entries of the source, which are not always exact repeats. Equal entries are not always repeated. Where two headings read alike, the source gives them in different places. Bounds are passed on as bounds.

The test system of one assay is SERT V86Anap (purified). The assay is described as follows: Anap fluorescence emission spectra, SERT V86Anap. Set-up: species or system human. The settings on record: 200 nM ligand.
In assay [1] the test system is SERT F556Anap (purified). The assay is described as follows: Real-time Anap fluorescence measurements, SERT F556Anap. The class given is binding, human. Conditions: 200 nM vilazodone after 30 min preincubation with 100 nM imipramine, Na+.
For assay [2], the target named is T1, SERT WT (Homo sapiens, UniProt P31645). The assay is described as follows: [3H]5-HT uptake inhibition, intact COS-7 cells expressing SERT WT. The class given is cell-based.
The target in assay [3] is T1, SERT WT. The settings on record: previous study; cited from earlier work.
Assay [4] has as its system SERT F556Anap (purified). The assay is described as follows: Anap fluorescence emission spectra, SERT F556Anap. Set-up: species or system human. Conditions: 200 nM ligand.
In another assay the test system is SERT allosteric site. Conditions: S1-bound [3H]imipramine; cited from earlier work.
In assay [5] the test system is SERT-expressing membranes. Conditions: cited from earlier work.

T1 sequence (P31645 whole entry): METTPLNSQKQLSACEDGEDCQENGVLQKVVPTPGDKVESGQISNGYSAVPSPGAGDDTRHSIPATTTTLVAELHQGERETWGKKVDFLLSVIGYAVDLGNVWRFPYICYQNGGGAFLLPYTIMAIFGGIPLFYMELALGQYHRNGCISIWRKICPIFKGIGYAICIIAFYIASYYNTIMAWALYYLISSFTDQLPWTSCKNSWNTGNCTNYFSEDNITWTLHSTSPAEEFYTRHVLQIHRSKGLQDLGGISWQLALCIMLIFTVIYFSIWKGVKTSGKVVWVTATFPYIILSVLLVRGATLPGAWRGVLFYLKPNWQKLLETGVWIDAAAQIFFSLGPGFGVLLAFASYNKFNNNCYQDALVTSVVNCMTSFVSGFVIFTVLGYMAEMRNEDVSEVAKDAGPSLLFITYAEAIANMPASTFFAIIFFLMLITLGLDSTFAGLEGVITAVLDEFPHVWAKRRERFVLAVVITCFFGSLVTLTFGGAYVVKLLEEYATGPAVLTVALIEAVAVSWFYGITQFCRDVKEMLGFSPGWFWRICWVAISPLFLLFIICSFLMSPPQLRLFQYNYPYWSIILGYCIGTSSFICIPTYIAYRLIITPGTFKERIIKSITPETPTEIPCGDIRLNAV

In the case of `N#Cc1ccc2[nH]cc(CCCCN3CCN(c4ccc5oc(C(N)=O)cc5c4)CC3)c2c1` [vilazodone], the “change of V86Anap fluorescence emission” value in the assay with SERT V86Anap (purified) (200 mM K+) is reported as “increasing the fluorescence”; with SERT V86Anap (purified) (200 mM Na+) it was “decreased the fluorescence”. In the assay with SERT F556Anap (purified) [1], the “τ of time-dependent change in fluorescence, imipramine-bound SERT” value is 0.8 ± 0.18 min. For the same compound, on SERT WT [2] (SERT WT), the “Hill coefficient (vilazodone)” value is reported as greater than 1. Also, the “5-HT uptake inhibition by vilazodone in presence of Fab 15B8” value at SERT WT [2] (preincubation with 100 nM Fab 15B8 vs buffer, whole cells) is listed as “unchanged”. At SERT WT [3], the “Hill coefficient of inhibition of [3H]5-HT uptake” value is 1.8 and ~ 1.8. The “change of F556Anap fluorescence emission” value is “red-shifted and increase in fluorescence” in the assay on SERT F556Anap (purified) [4] (200 mM K+); “decrease in quantum yield and a blue-shift” with SERT F556Anap (purified) [4] (200 mM NMDG+); “large decrease in intensity accompanied by a blue-shift” with SERT F556Anap (purified) [4] (200 mM Na+). In addition, in the assay with SERT allosteric site, the “allosteric potency (inhibition of dissociation of pre-bound [3H]imipramine)” value was 14 nM and ~ 14 nM. Besides, the results for the “affinity, SERT-expressing membranes” value in assay [5] (K+) and in assay [5] (Na+) were 36.7 nM and 5.8 nM, respectively.
